Experimental findings from ChEMBL document CHEMBL1125202 (J Med Chem, 1991) are described below.

SMILES strings stand for the structures.

For the test, the target named is Sodium/potassium-transporting ATPase. In words: Inhibition of [3H]ouabain binding to Na/K ATP-ase in dog heart muscle. It is filed as tissue-based, Canis lupus familiaris, Muscle tissue.
For orientation: IC50 means the midpoint of a concentration-inhibition curve. A high value points to lower potency. Regarding `CC(=O)[C@H]1CC[C@@]2(O)[C@@H]3CC[C@H]4C[C@@H](OC[C@@H]5O[C@H](OC[C@@H]6O[C@H](OC[C@@H]7O[C@H](O)C[C@@H](O)[C@H]7O)C[C@@H](O)[C@H]6O)C[C@@H](O)[C@H]5O)CC[C@]4(C)[C@H]3CC[C@]12C`, the IC50 was found to be 1000 nM.
For the compound `C[C@]12CC[C@H](OC[C@@H]3O[C@H](O)C[C@@H](O)[C@H]3O)C[C@@H]1CC[C@@H]1[C@@H]2CC[C@]2(C)[C@@H](C3=CC(=O)OC3)CC[C@@]12O`, the IC50 was determined as 9 nM.
The compound `C[C@H](O)C1CC[C@@]2(O)[C@@H]3CC[C@H]4C[C@@H](OC[C@@H]5O[C@H](OC[C@@H]6O[C@H](O)C[C@@H](O)[C@H]6O)C[C@@H](O)[C@H]5O)CC[C@]4(C)[C@H]3CC[C@]12C` (stereo not given in full) had an IC50 of 650 nM.
The compound `CC(=O)C1CCC2(O)C3CCC4C[C@H](OC[C@H]5O[C@@H](O)[C@H](O)[C@H](O)[C@H]5O)CCC4(C)C3CCC12C` (stereo not given in full) displayed an IC50 of 150 nM.
In turn, `CC(O)[C@H]1CC[C@@]2(O)[C@@H]3CC[C@H]4C[C@@H](OC[C@@H]5O[C@H](O)C[C@@H](O)[C@H]5O)CC[C@]4(C)[C@H]3CC[C@]12C` (stereo not given in full) registered an IC50 of 650 nM.
The value for `CC(O)[C@H]1CC[C@@]2(O)[C@@H]3CC[C@H]4C[C@@H](OC[C@@H]5O[C@H](OC[C@@H]6O[C@H](OC[C@@H]7O[C@H](O)C[C@@H](O)[C@H]7O)C[C@@H](O)[C@H]6O)C[C@@H](O)[C@H]5O)CC[C@]4(C)[C@H]3CC[C@]12C` (stereo not given in full) was 650 nM; that for `CC(=O)[C@H]1CC[C@@]2(O)[C@@H]3CC[C@H]4CCCC[C@]4(C)[C@H]3CC[C@]12C` was more than 200000 nM.
Compound `CC(O)[C@H]1CC[C@@]2(O)[C@@H]3CCC4C[C@@H](O)CC[C@]4(C)[C@H]3CC[C@]12C` (stereo not given in full) displayed an IC50 of 6400 nM.
`CC(O)C1CCC2(O)C3CCC4C[C@@H](OC[C@H]5O[C@@H](O)[C@H](O)[C@H](O)[C@H]5O)CCC4(C)C3CCC12C` (stereo not given in full) showed an IC50 of 400 nM.
In turn, `CC(=O)[C@H]1CC[C@@]2(O)[C@@H]3CC[C@H]4C[C@@H](OC[C@@H]5O[C@H](O)C[C@@H](O)[C@H]5O)CC[C@]4(C)[C@H]3CC[C@]12C` showed an IC50 of 1300 nM.
The compound `CC(=O)C1CCC2(O)C3CCC4C[C@@H](OC[C@H]5O[C@@H](O)[C@H](O)[C@H](O)[C@H]5O)CCC4(C)C3CCC12C` (stereo not given in full) showed an IC50 of 500 nM.
The value for `C[C@]12CC[C@H](OC[C@H]3O[C@H](O)[C@H](O)[C@@H](O)[C@@H]3O)CC1CC[C@@H]1[C@@H]2CC[C@]2(C)[C@H](C3=CC(=O)OC3)CC[C@@]12O` (stereo not given in full) was 3 nM.
In the case of `C[C@]12CC[C@H](OC[C@@H]3O[C@H](OC[C@@H]4O[C@H](O)C[C@@H](O)[C@H]4O)C[C@@H](O)[C@H]3O)C[C@@H]1CC[C@@H]1[C@@H]2CC[C@]2(C)[C@@H](C3=CC(=O)OC3)CC[C@@]12O`, the IC50 was determined as 8 nM.
With `C[C@]12CC[C@H](OC[C@H]3O[C@H](O)[C@H](O)[C@@H](O)[C@@H]3O)CC1CC[C@@H]1[C@@H]2CC[C@]2(C)[C@@H](C3=CC(=O)OC3)CC[C@@]12O` (stereo not given in full) the figure was 7 nM; with `C[C@]12CCCC[C@@H]1CC[C@@H]1[C@@H]2CC[C@]2(C)[C@@H](C3=CC(=O)OC3)CC[C@@]12O`, 70 nM; with `CC(=O)[C@H]1CC[C@@]2(O)[C@@H]3CC[C@H]4C[C@@H](O)CC[C@]4(C)[C@H]3CC[C@]12C`, 20000 nM.
The compound `CC(O)C1CCC2(O)C3CCC4C[C@H](OC[C@H]5O[C@@H](O)[C@H](O)[C@H](O)[C@H]5O)CCC4(C)C3CCC12C` (stereo not given in full) showed an IC50 of 75 nM.
The value for `C[C@]12CC[C@H](OC[C@@H]3O[C@H](OC[C@@H]4O[C@H](OC[C@@H]5O[C@H](O)C[C@@H](O)[C@H]5O)C[C@@H](O)[C@H]4O)C[C@@H](O)[C@H]3O)C[C@@H]1CC[C@@H]1[C@@H]2CC[C@]2(C)[C@@H](C3=CC(=O)OC3)CC[C@@]12O` was 8 nM; that for `CC(=O)[C@H]1CC[C@@]2(O)[C@@H]3CC[C@H]4C[C@@H](OC[C@@H]5O[C@H](OC[C@@H]6O[C@H](O)C[C@@H](O)[C@H]6O)C[C@@H](O)[C@H]5O)CC[C@]4(C)[C@H]3CC[C@]12C` was 800 nM; that for `CC(O)[C@H]1CC[C@@]2(O)[C@@H]3CC[C@H]4CCCC[C@]4(C)[C@H]3CC[C@]12C` (stereo not given in full) was 24000 nM.
